From US7501281B2, “Compositions, methods and kits related to thrombin, Notch signaling and stamatogenesis and growth of stem cells” (Maine Medical Center Research Institute, priority 2003, dated 2009)
Marks after values point to notes of the source that are not given here.

B1: sDl1: soluble non-transmembrane form of the Notch ligand Delta1 (protein)
chain: QVWSSGVFELKLQEFVNKKGLLGNRNCCRGGAGPPPCACRTFFRVCLKHYQASVSPEPPCTYGSAVTPVLGVDSFSLPDGGGADSAFSNPIRFPFGFTWPGTFSLIIEALHTDSPDDLATENPERLISRLATQRHLTVGEEWSQDLHSSGRTDLKYSYRFVCDEHYYGEGCSVFCRPRDDAFGHFTCGERGEKVCNPGWKGPYCTEPICLPGCDEQHGFCDKPGECKCRVGWQGRYCDECIRYPGCLHGTCQQPWQCNCQEGWGGLFCNQDLNYCTHHKPCKNGATCTNTGQGSYTCSCRPGYTGATCELGIDECDPSPCKNGGSCTDLENSYSCTCPPGFYGKICELSAMTCADGPCFNGGRCSDSPDGGYSCRCPVGYSGFNCEKKIDYCSSSPCSNGAKCVDLGDAYLCRCQAGFSGRHCDDNVDDCASSPCANGGTCRDGVNDFSCTCPPGYTGRNCSAPVSRCEHAPCHNGATCHERGHRYVCECARGYGGPNCQFLLPELPPGPAVVDLTEKLEGQGGPFPW
modifications: left off: small tags and cut ends
notes: soluble non-transmembrane form of the Notch ligand Delta1

Columns and labels:
[1] = test system: Notch-dependent CSL1 activity in full-length Jagged1 NIH 3T3 cell transfectants; experiment: Dual Luciferase Reporter Assay of CSL1-dependent transcription; format: cell-based, murine
[2] = test system: mouse NSCS populations; experiment: Clonogenic differentiation assay of NCSC, pre-incubation with Notch ligand then BMP2 challenge; format: cell-based
Protocol: Clonogenic assays were performed as described (Stemple et al., 1992, Cell 71:973-985). Briefly, populations of murine NCSC were plated at a clonal density and maintained for a maximum of 14 days in Morrison media supplemented with 15% chick embryo extract (Morrison et al., 1999, Cell 96:737-749). The resulting clones were fixed in an acetic acid:ethanol solution (2:1) and stained with antibodies against peripherin (Chemicon) to detect neurons, smooth muscle actin (Sigma) to detect myofibroblasts, and GFAP (Chemicon) to detect Schwann cells. Clones were scored based on the appearance of just one phenotypic representative. The number and percentage of clones containing neurons only (N), Schwann cells only (S), myofibroblasts only (M), N+S, N+M, N+S+M, and S+M were scored at day 14 unless otherwise stated. The production of each representative phenotype in each individual clone was also scored to complement the clonal population assay.
NCSC Retain Neurogenic capacity in the presence of sJ1. A clonogenic differentiation assay was performed using mouse NSCS populations as described previously (Kubu et al., 2002, Dev. Biol. 244:199-214; Stemple et al., 1992, Cell 71:973-985). The cells were incubated in Stemple media (Stemple et al., 1992) with or without 5 nM sDl1 or 7.5 nM sJ I for the time periods set forth in Table 1. After the initial incubation period, cells were washed and neuronal differentiation was challenged in the presence of 1 ng/ml BMP2 for an additional seven days. The resulting clones were fixed and stained for detection of neural crest markers. The data disclosed in Table 1 is presented as the percentage of glial-only, neuron-only, and neuron colonies containing either smooth muscle or glial markers as the mean±standard deviation (SD) of three experiments originating from three independent cell isolations. Note the retention of neurogenic differentiation capacity in sJ1-treated cells (*=p<0.01) compared with the sDl1-treated cells.

[3] = test system: NCSC populations; experiment: GFAP immunoreactivity as onset of glial-specific clonogenic differentiation; format: cell-based, murine
Protocol: FIG. 12A depicts an RT-PCR analysis of FGF1.A mRNA expression. Briefly, populations of murine NCSC were treated for 48 hours in Morrison media supplemented with either 7.5 nM sJ1, 5.0 nM sDl1, 10 μg/ml of α-thrombin or 5 μg/ml TRAP, and the steady-state levels of the FGF1.A mRNA were measured using RT-PCR as described elsewhere herein. […] Clonogenic differentiation assays of murine NCSC populations were assessed by maintaining the cells in Morrison media supplemented with increasing concentrations of either sJ1 or sDl1. […] Clonogenic differentiation assays of NCSC populations was assessed by maintaining the cells in Morrison media supplemented with either 7.5 nM sJ1 (▪-▪) or 5 nM sDl1 (▴-▴). The onset of gliogenic differentiation was determined by GFAP immunohistochemistry. […]
Since sJ1 enabled the retention of NCSC neurogenic potential over a 7 day period of exposure (Table 1), glial fibrillary acidic protein (GFAP) immunoreactivity was utilized as a measure of the onset of glial-specific clonogenic differentiation (Morrison et al., 1999, Cell 96:737-749; Stemple et al., 1992, Cell 71:973-985). […] As previously reported (Morrison et al., 2000, Cell 101:499-510), after 48 hours of exposure to sDl1, GFAP immunoreactive cells were detected in NCSC populations (FIG. 12C). […]

[4] = test system: HEY and Deltex transcripts in NCSC populations; experiment: RT-PCR analyses of Notch down-stream effectors; format: cell-based
From the text: It is also interesting that sJ1 and sDl1 induce distinctive phenotypic outcomes. Whereas sJ1:Notch interactions enable stamatogenesis, sDl1:Notch associations lead to an immediate loss of neurogenic potential. […] Likewise, Delta1, but not Jagged1, is able to promote the in vitro development of human cord blood-derived progenitor cells with a T cell/natural killer cell phenotype (Jaleco et al., 2001, J. Exp. Med. 194:991-1002), and sJ1 is able to promote the clonal expansion of hematopoietic stem cells in vitro (Vas et al., 2004, J. Leukoc. Biol., in press). […] Thus, it appears that sJ1 and sDl1 induce different cell fate decisions in NCSC populations. […] Thus, without wishing to be bound by any particular theory, the levels of Notch signaling may be paramount in regulating the undifferentiated expansion of multipotential neural stem cells, and thrombin and/or sJ1, may be one of the key elements in this process that enable stamatogenesis to occur.

[5] = 24 hrs with 5 nM sDl1 or 7.5 nM sJ1, then 1 ng/ml BMP2 for seven days, percentage of colonies, mean±SD
[6] = 72 hrs with 7.5 nM sJ1, then 1 ng/ml BMP2 for seven days
[7] = 120 hrs with 7.5 nM sJ1, then 1 ng/ml BMP2 for seven days
[8] = 168 hrs with 7.5 nM sJ1, then 1 ng/ml BMP2 for seven days

Row | Molecule | effect on Notch-dependent CSL1 activity [1] | CSL1-dependent transcription, of the control level ([1]; maximal attenuation by thrombin) | CSL1-dependent transcription, of the control level ([1]; sJ1 expression (sJ1 NIH 3T3 cell transfectants)) | Glial-Only [2, 5] [%] | Neuron-Containing [2, 5] | Neuron-Only [2, 5] | Glial-Only [2, 6] [%*] | Neuron-Containing [2, 6] [%*] | Neuron-Only [2, 6] [%*] | Glial-Only [2, 7] [%*] | Neuron-Containing [2, 7] [%*] | Neuron-Only [2, 7] [%*] | Glial-Only [2, 8] [%*] | Neuron-Containing [2, 8] [%] | Neuron-Only [2, 8] [%*] | percentage of the colony expressing the glial-specific protein GFAP ([3]; day 7) [%] | steady-state levels of HEY and Deltex transcripts [4] | time of exposure at which GFAP immunoreactive cells were detected [3] [h]
1 | Thrombin | reduce the level of Notch-dependent CSL1 activity in a dose-dependent manner | approximately 75% |  |  |  |  |  |  |  |  |  |  |  |  |  |  |  | 
2 | sJ1: Soluble Jagged1, amino acid residues from about 1 to 1067 (SEQ ID NO:3) of full-length Jagged1 |  |  | approximately 25% | 0 | 71.4 ± 6.2%* | 54.4 ± 8.4%* | 0.8 ± 1.4 | 74.8 ± 16.3 | 42.8 ± 6.6 | 5.82 ± 3.4 | 52.01 ± 14.1 | 13.43 ± 6.5 | 13.3 ± 4.5 | 35.03 ± 9.1 | 6.5 ± 1.3 | 23±5 | suppression | 
3 | B1 |  |  |  | 57.8 ± 9.9 | 7.0 ± 5.7% | 0% |  |  |  |  |  |  |  |  |  |  | not | 48
